# Test results taken from PubChem BioAssay (NCI).
#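 Five concentrations, 48 hours, 96-well plates. GI50 marks 50% less growth. At the TGI there is no net growth.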
# Tests used:
# Experiment in all cases: inhibition of tumour cell growth, NCI panel, 48 h
# SN12C renal = system: SN12C renal
# MDA-MB-435 = system: MDA-MB-435
# COLO 205 colon = system: COLO 205 colon
# TK-10 renal = system: TK-10 renal
# SK-MEL-5 melanoma = system: SK-MEL-5 melanoma
# SF-539 CNS = system: SF-539 CNS
# HT29 colon = system: HT29 colon
# A498 renal = system: A498 renal
# SNB-19 CNS = system: SNB-19 CNS
# RPMI-8226 leukemia = system: RPMI-8226 leukemia
# HOP-92 NSCLC = system: HOP-92 NSCLC
# UO-31 renal = system: UO-31 renal
# SK-MEL-28 melanoma = system: SK-MEL-28 melanoma
# U251 CNS = system: U251 CNS
# OVCAR-4 ovarian = system: OVCAR-4 ovarian
# ACHN renal = system: ACHN renal
# NCI-H460 lung = system: NCI-H460 lung
# K-562 leukemia = system: K-562 leukemia
# MALME-3M melanoma = system: MALME-3M melanoma
# MOLT-4 leukemia = system: MOLT-4 leukemia
# UACC-257 melanoma = system: UACC-257 melanoma
# HL-60(TB) leukemia = system: HL-60(TB) leukemia
# MDA-MB-468 breast = system: MDA-MB-468 breast
# NCI/ADR-RES ovarian = system: NCI/ADR-RES ovarian
# M14 melanoma = system: M14 melanoma
# HCC-2998 colon = system: HCC-2998 colon
# 786-0 renal = system: 786-0 renal
# SK-OV-3 ovarian = system: SK-OV-3 ovarian
# UACC-62 melanoma = system: UACC-62 melanoma
# MDA-MB-231 breast = system: MDA-MB-231 breast
# HCT-15 colon = system: HCT-15 colon
# SW-620 colon = system: SW-620 colon
# SF-295 CNS = system: SF-295 CNS
# NCI-H522 lung = system: NCI-H522 lung
# DU-145 prostate = system: DU-145 prostate
# HS 578T breast = system: HS 578T breast
# HOP-62 NSCLC = system: HOP-62 NSCLC
# CCRF-CEM leukemia = system: CCRF-CEM leukemia
# NCI-H23 lung = system: NCI-H23 lung
# NCI-H226 lung = system: NCI-H226 lung
# A549 NSCLC = system: A549 NSCLC
# HCT-116 colon = system: HCT-116 colon
# PC-3 prostate = system: PC-3 prostate
# SK-MEL-2 melanoma = system: SK-MEL-2 melanoma
# EKVX NSCLC = system: EKVX NSCLC
# OVCAR-3 ovarian = system: OVCAR-3 ovarian
# RXF 393 renal = system: RXF 393 renal
# OVCAR-5 ovarian = system: OVCAR-5 ovarian
# OVCAR-8 ovarian = system: OVCAR-8 ovarian
# SR leukemia = system: SR leukemia
# BT-549 breast = system: BT-549 breast
# MCF7 breast = system: MCF7 breast
# SNB-75 CNS = system: SNB-75 CNS
# T-47D breast = system: T-47D breast
# LOX IMVI melanoma = system: LOX IMVI melanoma
# KM12 colon = system: KM12 colon
# IGROV1 ovarian = system: IGROV1 ovarian
# CAKI-1 renal = system: CAKI-1 renal
# SF-268 CNS = system: SF-268 CNS
structure (smiles),measurement,setting,value
O=C(N/N=C/c1c[nH]c2ccccc12)Nc1ccc(F)c(Cl)c1,GI50,SN12C renal,11.2 µM
same,TGI,SN12C renal,23.2 µM
same,GI50,MDA-MB-435,3.35 µM
same,TGI,MDA-MB-435,12.6 µM
same,GI50,COLO 205 colon,14.1 µM
same,TGI,COLO 205 colon,27.1 µM
same,GI50,TK-10 renal,22.8 µM
same,TGI,TK-10 renal,44.3 µM
same,GI50,SK-MEL-5 melanoma,8.65 µM
same,TGI,SK-MEL-5 melanoma,20.8 µM
same,GI50,SF-539 CNS,10.1 µM
same,TGI,SF-539 CNS,21.6 µM
same,GI50,HT29 colon,12.7 µM
same,TGI,HT29 colon,25.3 µM
same,GI50,A498 renal,15.4 µM
same,TGI,A498 renal,30.2 µM
same,GI50,SNB-19 CNS,14.9 µM
same,TGI,SNB-19 CNS,28.1 µM
same,GI50,RPMI-8226 leukemia,1480 nM
same,TGI,RPMI-8226 leukemia,9.26 µM
same,GI50,HOP-92 NSCLC,2040 nM
same,TGI,HOP-92 NSCLC,6.59 µM
same,GI50,UO-31 renal,5.01 µM
same,TGI,UO-31 renal,19.4 µM
same,GI50,SK-MEL-28 melanoma,12.5 µM
same,TGI,SK-MEL-28 melanoma,25 µM
same,GI50,U251 CNS,13.3 µM
same,TGI,U251 CNS,26 µM
same,GI50,OVCAR-4 ovarian,12.8 µM
same,TGI,OVCAR-4 ovarian,28.7 µM
same,GI50,ACHN renal,14.6 µM
same,TGI,ACHN renal,27.7 µM
same,GI50,NCI-H460 lung,13 µM
same,TGI,NCI-H460 lung,26.3 µM
same,GI50,K-562 leukemia,1860 nM
same,TGI,K-562 leukemia,17.4 µM
same,GI50,MALME-3M melanoma,12.6 µM
same,TGI,MALME-3M melanoma,25.1 µM
same,GI50,MOLT-4 leukemia,1440 nM
same,TGI,MOLT-4 leukemia,11.8 µM
same,GI50,UACC-257 melanoma,13.6 µM
same,TGI,UACC-257 melanoma,26.4 µM
same,GI50,HL-60(TB) leukemia,3.44 µM
same,TGI,HL-60(TB) leukemia,18.8 µM
same,GI50,MDA-MB-468 breast,1980 nM
same,TGI,MDA-MB-468 breast,7.74 µM
same,GI50,NCI/ADR-RES ovarian,6.05 µM
same,TGI,NCI/ADR-RES ovarian,25 µM
same,GI50,M14 melanoma,1570 nM
same,TGI,M14 melanoma,3.44 µM
same,GI50,HCC-2998 colon,11.7 µM
same,TGI,HCC-2998 colon,23.9 µM
same,GI50,786-0 renal,1370 nM
same,TGI,786-0 renal,3.27 µM
same,GI50,SK-OV-3 ovarian,12.9 µM
same,TGI,SK-OV-3 ovarian,26.8 µM
same,GI50,UACC-62 melanoma,10.8 µM
same,TGI,UACC-62 melanoma,22.6 µM
same,GI50,MDA-MB-231 breast,11.8 µM
same,TGI,MDA-MB-231 breast,24 µM
same,GI50,HCT-15 colon,5.13 µM
same,TGI,HCT-15 colon,17.9 µM
same,GI50,SW-620 colon,10.9 µM
same,TGI,SW-620 colon,22.8 µM
same,GI50,SF-295 CNS,14.4 µM
same,TGI,SF-295 CNS,27.4 µM
same,GI50,NCI-H522 lung,1680 nM
same,TGI,NCI-H522 lung,8.35 µM
same,GI50,DU-145 prostate,14.4 µM
same,TGI,DU-145 prostate,27.4 µM
same,GI50,HS 578T breast,13.7 µM
same,TGI,HS 578T breast,39.7 µM
same,GI50,HOP-62 NSCLC,13.1 µM
same,TGI,HOP-62 NSCLC,25.8 µM
same,GI50,CCRF-CEM leukemia,604 nM
same,TGI,CCRF-CEM leukemia,11.7 µM
same,GI50,NCI-H23 lung,13.5 µM
same,TGI,NCI-H23 lung,27.2 µM
same,GI50,NCI-H226 lung,10.3 µM
same,TGI,NCI-H226 lung,34.7 µM
same,GI50,A549 NSCLC,12.7 µM
same,TGI,A549 NSCLC,26.3 µM
same,GI50,HCT-116 colon,1490 nM
same,TGI,HCT-116 colon,2840 nM
same,GI50,PC-3 prostate,3.12 µM
same,TGI,PC-3 prostate,14.5 µM
same,GI50,SK-MEL-2 melanoma,10.7 µM
same,TGI,SK-MEL-2 melanoma,22.6 µM
same,GI50,EKVX NSCLC,13.8 µM
same,TGI,EKVX NSCLC,28.6 µM
same,GI50,OVCAR-3 ovarian,11.5 µM
same,TGI,OVCAR-3 ovarian,23.6 µM
same,GI50,RXF 393 renal,3.97 µM
same,TGI,RXF 393 renal,15.5 µM
same,GI50,OVCAR-5 ovarian,13.5 µM
same,TGI,OVCAR-5 ovarian,26.3 µM
same,GI50,OVCAR-8 ovarian,14.3 µM
same,TGI,OVCAR-8 ovarian,31.6 µM
same,GI50,SR leukemia,2200 nM
same,TGI,SR leukemia,13.3 µM
same,GI50,BT-549 breast,312 nM
same,TGI,BT-549 breast,1540 nM
same,GI50,MCF7 breast,6.47 µM
same,TGI,MCF7 breast,23.1 µM
same,GI50,SNB-75 CNS,11.8 µM
same,TGI,SNB-75 CNS,24 µM
same,GI50,T-47D breast,11.5 µM
same,TGI,T-47D breast,32 µM
same,GI50,LOX IMVI melanoma,11.2 µM
same,TGI,LOX IMVI melanoma,23.2 µM
same,GI50,KM12 colon,8.76 µM
same,TGI,KM12 colon,21 µM
same,GI50,IGROV1 ovarian,7.6 µM
same,TGI,IGROV1 ovarian,21.7 µM
same,GI50,CAKI-1 renal,14.8 µM
same,TGI,CAKI-1 renal,28 µM
same,GI50,SF-268 CNS,8.09 µM
same,TGI,SF-268 CNS,20.9 µM
